What was measured:
[1] = Excipient compatibility study, HDPE bottles, 40° C, 75% RH, HPLC impurity analysis; format: physicochemical
Procedure: Studies were done to determine compatibility of the levosulpiride with the various excipients used in the formulations described herein. Samples, as described in Table 12 below, were packaged into 60 cc high-density polyethylene (HDPE) bottles with an induction seal, then stored at 40° C., 75% relative humidity (RH). Samples may be taken at various time points to analyze for the presence of impurities.
Various samples comprised of the levosulpiride with excipients as described in Table 11 below were packaged in 60 cc HDPE bottles with induction seals, then stored at 40° C., 75% RH. Samples were analyzed at 1 and 2 months using HPLC according to the method described in Example 6.

[2] = Stress stability study, open dishes at 50° C or 80° C, 75% RH, 3 days, HPLC impurity analysis; format: physicochemical
Procedure: In the present work, levosulpiride was subjected to stress and compatibility studies using methods published in the European Pharmacopoeia, Supplement 2001, 1572 Assay. Both levosulpiride powder and granules comprising 95 wt % levosulpiride and 5 wt % povidone (PVP) prepared as described in Example 1 were incubated in open dishes in a stability chamber/oven at 50° C. or 80° C., 75% relative humidity (RH) for 3 days. The substances were then analyzed by HPLC (high performance liquid chromatography). The mobile phase (MP) was composed of 10% acetonitrile (ACN), 10% methanol (MeOH) and an 80% solution containing 6.8 g/l of potassium dihydrogen phosphate and 1 g/l of sodium octanesulphonate, pH 3.3. The column was a 0.25 m×4.6 mm, 5 μm Zorbax RX C8 (Agilent, Inc.), flow was set at 1.5 ml/min with a wavelength of 240 nm.

[3] = 1 vs. 2 month (one value given)

With `CCN1CCC[C@H]1CNC(=O)c1cc(S(N)(=O)=O)ccc1OC` [Levosulpiride] as the compound, how does the “Unknown Impurity 2 RPA (%)” value ([1]; 1 month) read?
Its value is 0.18%.

And the “Impurity B RPA (%)” value [1, 3]?
Its value is <0.05%.

What about the “Levosulpiride peak RPA (%)” value [1, 3] of the same compound?
Its value is 100%.

And the “Unknown Impurity 1 RPA (%)” value [1, 3]?
Its value is <0.05%.

And the “Unknown Impurity 2 RPA (%)” value ([1]; 2 month)?
Its value is 0.19%.

What about the “Impurities under the stressed condition” value ([2]; 50° C. or 80° C., 75% RH, 3 days) of the same compound?
The value was “did not increase”.

What about the “Impurity B RPA (%)” value ([2]; 50° C./75% RH, Time = 3 days) of the same compound?
Its value is <0.05%.

And the “Levosulpiride peak RPA (%)” value ([2]; 50° C./75% RH, Time = 3 days)?
Its value is 100%.

And the “Unknown Impurity 1 RPA (%)” value ([2]; 50° C./75% RH, Time = 3 days)?
Its value is <0.05%.

What about the “Unknown Impurity 2 RPA (%)” value ([2]; 50° C./75% RH, Time = 3 days) of the same compound?
The value was 0.20%.

What about the “Impurity B RPA (%)” value ([2]; 80° C./75% RH, Time = 3 days) of the same compound?
The value was <0.05%.

What about the “Levosulpiride peak RPA (%)” value ([2]; 80° C./75% RH, Time = 3 days) of the same compound?
Its value is 100%.

What about the “Unknown Impurity 1 RPA (%)” value ([2]; 80° C./75% RH, Time = 3 days) of the same compound?
Its value is <0.05%.

And the “Unknown Impurity 2 RPA (%)” value ([2]; 80° C./75% RH, Time = 3 days)?
The value was 0.22%.

What about the “Impurity B RPA (%)” value ([2]; Time = 0) of the same compound?
Its value is <0.05%.

And the “Levosulpiride peak RPA (%)” value ([2]; Time = 0)?
The value was 100%.

What about the “Unknown Impurity 1 RPA (%)” value ([2]; Time = 0) of the same compound?
The value was <0.05%.

What about the “Unknown Impurity 2 RPA (%)” value ([2]; Time = 0) of the same compound?
Its value is 0.17%.

Source: patent US20110052700A1, “GASTRIC RETENTIVE PHARMACEUTICAL COMPOSITIONS FOR IMMEDIATE AND EXTENDED RELEASE OF LEVOSULPIRIDE” (DEPOMED, INC., priority 2009, published 2011)
